Where a name gives a salt, the structure may show the parent alone.
Each compound was assayed against T1, human cloned 5-HT6 receptors (Homo sapiens, UniProt P50406) (assay: Cyclase assay (cAMP production in washed membranes of HeLa 5HT6 cells, 5-HT stimulated)). Conditions: not given.
T1 construct: expressed in transfected cells; host or cells: HeLa cells expressing the cloned 5-HT6 receptor (washed membranes)
Assay type: biochemical
Experimental: Compounds of the invention may be tested for in vitro biological activity in accordance with the following cyclase assay:
0.5 μl of test compound in 100% dimethylsulfoxide (DMSO) was added to a white, solid 384 well assay plate (for dose response measurements the top of the concentration range is 7.5 μM final). 10 μl of washed membranes of HeLa 5HT6 cells (for preparation see WO 98/27081) in basic buffer (50 mM HEPES pH 7.4 (KOH), 10 mM MgCl2, 100 mM NaCl, 1 μl/ml 3-isobutyl-1-methylxanthine (IBMX) (Sigma-Aldrich)) was added to all wells followed by 10 μl 2×ATP buffer (100 μl/ml ATP and 1 μl/ml 3-Isobutyl-1-methylxanthine (IBMX) (Sigma-Aldrich)) with 5-HT (at a concentration equivalent to a dose response of 4×EC50). The resultant mixture was then incubated at room temperature for 30-45 minutes to allow cAMP production.
cAMP production was then measured using the DiscoveRx™ HitHunter™ chemiluminescence cAMP assay kit (DiscoveRx Corporation, 42501 Albrae Street, Fremont, Calif. 94538; Product Code: 90-0004L) or any other suitable cAMP measurement assay.
IC50 values were estimated from arbitrary designated unit (ADU) measurements from a Perkin Elmer Viewlux instrument using a four parameter logistic curve fit within EXCEL (Bowen, W. P. and Jerman, J. C. (1995), Nonlinear regression using spreadsheets. Trends in Pharmacol. Sci., 16, 413-417). Functional Ki values were calculated using the method of Cheng, Y. C. and Prussof, W. H. (Biochemical Pharmacol (1973) 22 3099-3108). pIC50 and fpKi are the negative log10 of the molar IC50 and functional Ki respectively.

T1 sequence (P50406 whole entry): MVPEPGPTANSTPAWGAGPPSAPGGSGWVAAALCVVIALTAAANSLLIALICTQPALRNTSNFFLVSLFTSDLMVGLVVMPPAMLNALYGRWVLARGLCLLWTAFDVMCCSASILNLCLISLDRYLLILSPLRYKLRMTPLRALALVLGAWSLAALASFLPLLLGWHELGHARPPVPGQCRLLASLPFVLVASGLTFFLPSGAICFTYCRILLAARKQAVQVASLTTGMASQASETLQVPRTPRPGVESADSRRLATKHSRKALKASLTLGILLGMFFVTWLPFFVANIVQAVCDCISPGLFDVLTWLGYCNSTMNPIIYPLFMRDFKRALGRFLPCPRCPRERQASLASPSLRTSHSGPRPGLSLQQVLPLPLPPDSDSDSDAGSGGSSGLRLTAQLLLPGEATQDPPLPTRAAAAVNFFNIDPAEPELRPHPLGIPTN

Row | SMILES | Ki [nM]
1 | O=S(=O)(c1ccccc1)c1cnc2c(OCC3CC4CCN3CC4)cccc2c1 (stereo not drawn) [Example E22, 8-[(1-Azabicyclo[2.2.2]oct-2-ylmethyl)oxy]-3-(phenylsulfonyl) quinoline, hydrochloride] | < 10

Same assay, conditions: membranes of HeLa 5HT6 cells; 5-HT at 4×EC50; functional Ki calculated by Cheng-Prusoff from IC50; read-out: fpKi (functional pKi, antagonist potency for the 5-HT6 receptor) (converted)

Row | Ki [nM] | SMILES
2 | < 10 | CN(C)CCOc1cccc2cc(S(=O)(=O)c3ccccc3)cnc12 [Example E1b, [2-(3-Phenylsulfonylquinoline-8-yloxy)ethyl]dimethylamine, hydrochloride]
3 | < 10 | CN1CCC[C@H]1COc1cccc2cc(S(=O)(=O)c3ccccc3)cnc12 [Example E2b, 8-({[(2S)-1-Methyl-2-pyrrolidinyl]methyl}oxy)-3-(phenylsulfonyl) quinoline, hydrochloride]
4 | < 10 | O=S(=O)(c1ccccc1)c1cnc2c(OC[C@@H]3CCCN3)cccc2c1 [Example E3, 3-(Phenylsulfonyl)-8-{[(2S)-2-pyrrolidinylmethyl]oxy}quinoline, hydrochloride]
5 | < 10 | O=S(=O)(c1ccccc1)c1cnc2c(OCCN3CCCC3)cccc2c1 [Example E4, 3-(Phenylsulfonyl)-8-{[2-(1-pyrrolidinyl)ethyl]oxy}quinoline, hydrochloride]
6 | < 10 | O=S(=O)(c1ccccc1)c1cnc2c(O[C@@H]3CCNC3)cccc2c1 [Example E5, 3-(Phenylsulfonyl)-8-[(3R)-3-pyrrolidinyloxy]quinoline, hydrochloride]
7 | < 10 | CC(Oc1cccc2cc(S(=O)(=O)c3ccccc3)cnc12)C(C)N(C)C (stereo not drawn) [Example E6, Dimethyl(1-methyl-2-{[(3-(phenylsulfonyl)-8-quinolinyl]oxy}propyl)amine, hydrochloride]
8 | < 10 | O=S(=O)(c1ccccc1)c1cnc2c(OC[C@H]3CCCN3)cccc2c1 [Example E7, 3-(Phenylsulfonyl)-8-{[(2R)-2-pyrrolidinylmethyl]oxy}quinoline, hydrochloride]
9 | < 10 | O=S(=O)(c1ccccc1)c1cnc2c(OC3CCCNC3)cccc2c1 (stereo not drawn) [Example E15, 3-(Phenylsulfonyl)-8-(3-piperidinyloxy) quinoline, hydrochloride]
10 | < 10 | CN1CC[C@@H](Oc2cccc3cc(S(=O)(=O)c4ccccc4)cnc23)C1 [Example E17, 8-[[(3R)-1-Methyl-3-pyrrolidinyl]oxy}-3-(phenylsulfonyl) quinoline, hydrochloride]
11 | < 10 | CN1CCCC(Oc2cccc3cc(S(=O)(=O)c4ccccc4)cnc23)C1 (stereo not drawn) [Example E23, 8-[(1-Methyl-3-piperidinyl)oxy]-3-(phenylsulfonyl) quinoline, hydrochloride]
12 | < 10 | O=S(=O)(c1ccccc1)c1cnc2c(OCC3COCCN3)cccc2c1 (stereo not drawn) [Example E24, 8-[(3-Morpholinylmethyl)oxy]-3-(phenylsulfonyl) quinoline, hydrochloride]
